Test results taken from ChEMBL document CHEMBL5465560, “Selectivity Literature for EUbOPEN Chemogenomic Library” (2024).
Values belong to the compound of their own block, whether it stands above or below them.

Legend:
[1] = target: MAP/microtubule affinity-regulating kinase 3 (Homo sapiens) (UniProt P27448); assay: Selectivity interaction (Kinase panel (literature)) EUB0001199aCl MARK3; details: at 1 µM
[2] = test system: Hepatocyte growth factor receptor (Homo sapiens), P08581 [M1250T]; assay: (§1) Selectivity interaction (SelectScreen profiling (Invitrogen)) EUB0000607a MET; details: at 2 µM
[3] = target: Hepatocyte growth factor receptor (Homo sapiens, UniProt P08581); assay: as §1; details: at 2 µM
[4] = target: Rho-associated protein kinase 2 (Homo sapiens, UniProt O75116); assay: Selectivity interaction (ActivX KiNativ screen (kinase selectivity in THP-1 cell lysates)) EUB0000639a ROCK2; assay type: subcellular; details: lysate
[5] = target: T1, Rhodopsin kinase GRK1 (Homo sapiens) (UniProt Q15835); assay: Selectivity interaction (Ambit KINOMEscan and KiNATiv profiling in Jurkat cells) EUB0000090b GRK1; assay type: cell-based; details: at 1 µM
T1 sequence (whole entry): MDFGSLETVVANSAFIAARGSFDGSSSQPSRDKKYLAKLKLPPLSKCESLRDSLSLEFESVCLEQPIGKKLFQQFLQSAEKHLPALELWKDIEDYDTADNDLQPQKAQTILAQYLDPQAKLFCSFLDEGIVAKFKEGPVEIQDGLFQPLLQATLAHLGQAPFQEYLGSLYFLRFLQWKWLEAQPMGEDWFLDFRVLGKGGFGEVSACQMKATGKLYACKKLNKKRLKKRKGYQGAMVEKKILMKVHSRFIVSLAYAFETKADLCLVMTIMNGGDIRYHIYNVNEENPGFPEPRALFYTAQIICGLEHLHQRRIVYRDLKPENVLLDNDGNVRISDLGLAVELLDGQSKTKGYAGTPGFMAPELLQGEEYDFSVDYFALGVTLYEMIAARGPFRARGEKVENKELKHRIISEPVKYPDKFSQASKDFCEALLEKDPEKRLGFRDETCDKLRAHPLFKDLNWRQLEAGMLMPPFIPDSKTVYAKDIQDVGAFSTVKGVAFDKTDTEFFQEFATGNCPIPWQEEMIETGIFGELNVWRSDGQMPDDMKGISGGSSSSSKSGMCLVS

[6] = target: T2, Rhodopsin kinase GRK7 (Homo sapiens) (UniProt Q8WTQ7); assay: Selectivity interaction (KinomeScan (DiscoverX)) EUB0001079a GRK7; details: at 1 µM
T2 sequence (whole entry): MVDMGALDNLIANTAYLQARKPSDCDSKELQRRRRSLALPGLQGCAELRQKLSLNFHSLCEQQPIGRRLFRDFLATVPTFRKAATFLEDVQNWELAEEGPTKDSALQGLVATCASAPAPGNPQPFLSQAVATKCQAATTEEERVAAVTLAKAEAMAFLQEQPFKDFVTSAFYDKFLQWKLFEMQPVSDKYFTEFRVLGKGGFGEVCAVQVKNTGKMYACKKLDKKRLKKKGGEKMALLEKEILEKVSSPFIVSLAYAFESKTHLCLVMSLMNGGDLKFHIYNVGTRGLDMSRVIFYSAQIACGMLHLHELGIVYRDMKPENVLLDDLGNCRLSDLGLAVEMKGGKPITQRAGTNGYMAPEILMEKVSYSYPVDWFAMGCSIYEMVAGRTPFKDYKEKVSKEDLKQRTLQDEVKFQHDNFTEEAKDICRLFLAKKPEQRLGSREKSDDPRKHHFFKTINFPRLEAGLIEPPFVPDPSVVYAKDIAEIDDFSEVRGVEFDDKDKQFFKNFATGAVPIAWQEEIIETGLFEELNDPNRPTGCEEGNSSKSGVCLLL

[7] = target: 1-phosphatidylinositol 3-phosphate 5-kinase (Homo sapiens) (UniProt Q9Y2I7); assay: Selectivity interaction (KinomeScan (DiscoverX)) EUB0001079a PIKFYVE; details: at 1 µM
[8] = target: Calcium/calmodulin-dependent protein kinase type 1D (Homo sapiens) (UniProt Q8IU85); assay: Selectivity interaction (Kinase panel (KiNativ target engagement assay in Jurkat cells)) EUB0001635a CAMK1D; assay type: cell-based; details: at 1 µM
[9] = target: T3, Mitogen-activated protein kinase kinase kinase 13 (Homo sapiens) (UniProt O43283); assay: Selectivity interaction (KinomeScan (DiscoverX)) EUB0000092b MAP3K13; details: at 10 µM
T3 sequence (whole entry): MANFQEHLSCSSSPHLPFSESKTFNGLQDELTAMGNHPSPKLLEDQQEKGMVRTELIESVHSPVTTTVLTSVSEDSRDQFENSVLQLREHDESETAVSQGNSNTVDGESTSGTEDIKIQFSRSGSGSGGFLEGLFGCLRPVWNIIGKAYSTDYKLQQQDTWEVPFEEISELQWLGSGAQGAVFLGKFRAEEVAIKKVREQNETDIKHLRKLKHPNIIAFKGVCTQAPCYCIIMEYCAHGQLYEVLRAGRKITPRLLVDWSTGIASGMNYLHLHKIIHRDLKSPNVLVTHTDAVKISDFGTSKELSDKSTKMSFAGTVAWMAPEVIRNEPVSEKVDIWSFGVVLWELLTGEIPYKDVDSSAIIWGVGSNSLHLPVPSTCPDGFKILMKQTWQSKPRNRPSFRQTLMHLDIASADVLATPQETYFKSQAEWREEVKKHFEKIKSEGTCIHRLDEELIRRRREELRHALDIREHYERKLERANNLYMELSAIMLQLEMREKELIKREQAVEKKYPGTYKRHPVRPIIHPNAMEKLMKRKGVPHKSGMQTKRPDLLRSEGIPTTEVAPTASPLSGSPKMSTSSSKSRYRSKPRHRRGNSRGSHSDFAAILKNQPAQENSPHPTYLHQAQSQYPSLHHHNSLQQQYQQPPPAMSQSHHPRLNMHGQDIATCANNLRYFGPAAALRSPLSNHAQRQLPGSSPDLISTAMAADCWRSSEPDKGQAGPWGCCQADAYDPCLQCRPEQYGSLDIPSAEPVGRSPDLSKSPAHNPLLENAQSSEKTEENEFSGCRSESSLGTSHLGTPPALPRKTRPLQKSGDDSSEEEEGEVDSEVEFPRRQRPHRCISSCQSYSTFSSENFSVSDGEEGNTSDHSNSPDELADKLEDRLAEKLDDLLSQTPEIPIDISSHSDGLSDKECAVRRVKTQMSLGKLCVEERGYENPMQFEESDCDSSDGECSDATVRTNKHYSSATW

[10] = target: G protein-coupled receptor kinase 4 (Homo sapiens) (UniProt P32298); assay: Selectivity interaction (KinomeScan (DiscoverX)) EUB0000092b GRK4; details: at 10 µM

Chain of Rho-associated protein kinase 2 (O75116 whole entry, looked up): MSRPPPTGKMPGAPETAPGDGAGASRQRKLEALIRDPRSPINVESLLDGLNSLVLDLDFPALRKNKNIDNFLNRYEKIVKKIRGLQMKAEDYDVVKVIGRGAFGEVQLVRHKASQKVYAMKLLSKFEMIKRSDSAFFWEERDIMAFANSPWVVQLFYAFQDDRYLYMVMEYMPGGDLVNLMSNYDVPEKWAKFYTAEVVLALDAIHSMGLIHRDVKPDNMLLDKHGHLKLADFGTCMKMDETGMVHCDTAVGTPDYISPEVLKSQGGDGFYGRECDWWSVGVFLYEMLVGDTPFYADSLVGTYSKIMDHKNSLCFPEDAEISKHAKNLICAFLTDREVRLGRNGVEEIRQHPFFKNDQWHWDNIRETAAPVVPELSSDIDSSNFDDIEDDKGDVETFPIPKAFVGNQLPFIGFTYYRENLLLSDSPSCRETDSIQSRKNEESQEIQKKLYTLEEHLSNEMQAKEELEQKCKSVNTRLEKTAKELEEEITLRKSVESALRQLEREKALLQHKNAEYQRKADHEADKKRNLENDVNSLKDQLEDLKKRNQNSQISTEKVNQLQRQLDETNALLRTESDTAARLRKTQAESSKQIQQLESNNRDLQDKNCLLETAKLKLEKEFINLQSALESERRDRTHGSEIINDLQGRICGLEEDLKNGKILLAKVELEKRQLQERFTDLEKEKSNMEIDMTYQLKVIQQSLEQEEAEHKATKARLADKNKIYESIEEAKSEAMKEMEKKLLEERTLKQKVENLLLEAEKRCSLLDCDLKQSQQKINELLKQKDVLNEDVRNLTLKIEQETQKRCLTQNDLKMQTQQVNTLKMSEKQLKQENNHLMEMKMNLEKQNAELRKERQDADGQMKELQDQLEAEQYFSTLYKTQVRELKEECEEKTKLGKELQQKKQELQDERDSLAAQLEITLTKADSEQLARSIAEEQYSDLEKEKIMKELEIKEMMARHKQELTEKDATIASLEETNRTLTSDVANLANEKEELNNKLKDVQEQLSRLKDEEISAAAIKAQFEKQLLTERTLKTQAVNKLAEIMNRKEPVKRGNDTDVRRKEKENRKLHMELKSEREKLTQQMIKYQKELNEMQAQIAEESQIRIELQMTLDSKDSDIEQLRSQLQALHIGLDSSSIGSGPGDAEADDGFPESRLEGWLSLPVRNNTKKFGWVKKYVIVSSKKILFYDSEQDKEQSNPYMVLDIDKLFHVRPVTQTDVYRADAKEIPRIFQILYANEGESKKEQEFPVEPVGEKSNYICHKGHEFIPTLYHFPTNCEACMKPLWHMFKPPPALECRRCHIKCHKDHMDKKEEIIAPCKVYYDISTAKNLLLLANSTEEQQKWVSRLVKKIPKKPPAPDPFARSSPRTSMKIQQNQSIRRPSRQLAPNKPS
Chain of Calcium/calmodulin-dependent protein kinase type 1D (Homo sapiens) (Q8IU85 whole entry, looked up): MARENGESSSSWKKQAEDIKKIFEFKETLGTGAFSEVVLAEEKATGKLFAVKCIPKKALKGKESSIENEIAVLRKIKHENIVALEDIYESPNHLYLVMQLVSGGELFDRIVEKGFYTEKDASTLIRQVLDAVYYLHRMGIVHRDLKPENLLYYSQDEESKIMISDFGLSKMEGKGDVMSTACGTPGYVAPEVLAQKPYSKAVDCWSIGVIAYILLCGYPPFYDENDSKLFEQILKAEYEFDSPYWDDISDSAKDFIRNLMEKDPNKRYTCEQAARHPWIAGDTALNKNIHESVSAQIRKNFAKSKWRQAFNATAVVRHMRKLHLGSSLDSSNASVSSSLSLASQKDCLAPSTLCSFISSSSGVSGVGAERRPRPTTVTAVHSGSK
Chain of 1-phosphatidylinositol 3-phosphate 5-kinase (Homo sapiens) (Q9Y2I7 whole entry): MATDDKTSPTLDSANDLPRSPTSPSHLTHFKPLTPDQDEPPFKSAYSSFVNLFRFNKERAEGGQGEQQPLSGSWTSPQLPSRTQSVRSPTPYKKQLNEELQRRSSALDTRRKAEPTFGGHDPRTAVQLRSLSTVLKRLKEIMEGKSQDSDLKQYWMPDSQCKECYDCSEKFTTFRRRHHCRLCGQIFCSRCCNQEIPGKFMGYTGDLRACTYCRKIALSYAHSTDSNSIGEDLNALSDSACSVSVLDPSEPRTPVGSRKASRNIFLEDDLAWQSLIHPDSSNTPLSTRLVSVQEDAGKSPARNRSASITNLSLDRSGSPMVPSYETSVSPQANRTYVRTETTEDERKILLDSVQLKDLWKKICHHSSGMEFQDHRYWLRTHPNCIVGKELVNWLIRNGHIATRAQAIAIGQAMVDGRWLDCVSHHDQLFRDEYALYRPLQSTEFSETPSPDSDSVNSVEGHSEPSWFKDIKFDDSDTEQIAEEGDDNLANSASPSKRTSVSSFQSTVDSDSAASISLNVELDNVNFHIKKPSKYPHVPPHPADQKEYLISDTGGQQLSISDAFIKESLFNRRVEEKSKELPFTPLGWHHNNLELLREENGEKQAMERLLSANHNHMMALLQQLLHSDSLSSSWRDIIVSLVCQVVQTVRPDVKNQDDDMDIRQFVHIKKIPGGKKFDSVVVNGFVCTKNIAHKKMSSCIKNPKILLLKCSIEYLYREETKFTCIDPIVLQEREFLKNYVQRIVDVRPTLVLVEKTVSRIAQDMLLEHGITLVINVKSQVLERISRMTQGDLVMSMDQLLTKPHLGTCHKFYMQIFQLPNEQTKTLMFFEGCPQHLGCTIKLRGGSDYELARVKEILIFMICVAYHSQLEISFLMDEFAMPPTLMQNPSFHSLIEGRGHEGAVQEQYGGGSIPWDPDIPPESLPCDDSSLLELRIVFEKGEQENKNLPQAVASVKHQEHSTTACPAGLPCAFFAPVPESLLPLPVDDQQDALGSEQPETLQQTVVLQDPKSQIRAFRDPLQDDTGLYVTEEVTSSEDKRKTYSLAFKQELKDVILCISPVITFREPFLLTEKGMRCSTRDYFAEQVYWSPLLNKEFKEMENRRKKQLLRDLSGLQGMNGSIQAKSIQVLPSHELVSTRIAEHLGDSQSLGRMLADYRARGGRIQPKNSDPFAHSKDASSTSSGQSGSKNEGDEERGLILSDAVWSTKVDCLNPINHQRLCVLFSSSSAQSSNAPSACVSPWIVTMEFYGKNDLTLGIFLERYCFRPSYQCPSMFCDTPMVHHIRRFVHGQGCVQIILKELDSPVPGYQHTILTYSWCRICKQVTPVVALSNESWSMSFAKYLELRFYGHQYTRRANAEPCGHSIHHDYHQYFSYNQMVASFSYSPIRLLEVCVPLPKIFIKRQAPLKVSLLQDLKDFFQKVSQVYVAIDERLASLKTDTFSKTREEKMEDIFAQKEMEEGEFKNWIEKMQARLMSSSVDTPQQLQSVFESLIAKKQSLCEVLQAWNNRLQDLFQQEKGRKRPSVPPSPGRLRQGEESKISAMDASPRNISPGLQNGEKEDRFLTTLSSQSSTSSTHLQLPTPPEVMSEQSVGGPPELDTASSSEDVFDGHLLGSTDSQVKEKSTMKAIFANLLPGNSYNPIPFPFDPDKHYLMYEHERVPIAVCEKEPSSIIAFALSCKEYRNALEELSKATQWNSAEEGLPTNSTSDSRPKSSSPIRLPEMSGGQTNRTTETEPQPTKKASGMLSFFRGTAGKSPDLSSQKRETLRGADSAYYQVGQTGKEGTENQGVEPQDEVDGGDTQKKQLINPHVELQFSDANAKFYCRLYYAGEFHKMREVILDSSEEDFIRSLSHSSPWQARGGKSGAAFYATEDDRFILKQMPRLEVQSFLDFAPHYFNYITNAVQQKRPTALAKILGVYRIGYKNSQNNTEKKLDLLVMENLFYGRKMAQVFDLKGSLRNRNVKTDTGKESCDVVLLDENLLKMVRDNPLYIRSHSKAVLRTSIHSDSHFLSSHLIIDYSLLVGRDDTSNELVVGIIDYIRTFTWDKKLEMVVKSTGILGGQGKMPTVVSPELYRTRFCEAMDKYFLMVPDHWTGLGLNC
Chain of MAP/microtubule affinity-regulating kinase 3 (Homo sapiens) (P27448 whole entry, looked up): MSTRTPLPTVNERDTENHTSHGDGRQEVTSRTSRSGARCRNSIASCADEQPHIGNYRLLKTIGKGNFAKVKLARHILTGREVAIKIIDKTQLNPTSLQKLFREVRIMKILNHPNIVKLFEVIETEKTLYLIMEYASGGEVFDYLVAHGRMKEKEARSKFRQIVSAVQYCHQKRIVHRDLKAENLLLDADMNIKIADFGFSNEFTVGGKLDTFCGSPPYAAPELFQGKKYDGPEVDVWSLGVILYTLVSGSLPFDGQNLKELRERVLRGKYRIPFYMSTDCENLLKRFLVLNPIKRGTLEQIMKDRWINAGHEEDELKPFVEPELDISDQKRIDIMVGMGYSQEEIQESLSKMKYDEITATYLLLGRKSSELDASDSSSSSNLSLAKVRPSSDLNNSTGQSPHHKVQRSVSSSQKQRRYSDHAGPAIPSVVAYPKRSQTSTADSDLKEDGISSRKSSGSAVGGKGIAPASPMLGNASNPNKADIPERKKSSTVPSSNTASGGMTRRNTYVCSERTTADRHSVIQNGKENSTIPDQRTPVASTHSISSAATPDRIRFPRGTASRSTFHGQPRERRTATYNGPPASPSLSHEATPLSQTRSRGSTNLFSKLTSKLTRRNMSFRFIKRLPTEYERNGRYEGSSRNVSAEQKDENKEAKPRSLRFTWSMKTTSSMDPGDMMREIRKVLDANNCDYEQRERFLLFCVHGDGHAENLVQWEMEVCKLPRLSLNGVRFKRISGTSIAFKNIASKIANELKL

% of inhibition [1]: -2%
SMILES: CN1Cc2nccc(-c3cn(C)nc3-c3ccc(F)cc3)c2C1=O

SMILES: CNC(=O)Nc1ccc(-c2nc(N3CC4CCC(C3)O4)c3cnn(C4CCC5(CC4)OCCO5)c3n2)cc1
% of inhibition [2]: 1%
% of inhibition [3]: 2%

% of inhibition ([4]; at 0.01 µM): 12.6%
% of inhibition ([4]; at 0.04 µM): -4.3%
% of inhibition ([4]; at 0.2 µM): -10.6%
% of inhibition ([4]; at 1 µM): 18.3%
% of inhibition ([4]; at 5 µM): 53.9%
SMILES: CC[C@@H]1[C@H](F)C(=O)N[C@@H]1COc1nccc2cc(C(N)=O)c(OC)cc12 [ZIMLOVISERTIB]

SMILES: CN(C)C/C=C/C(=O)Nc1ccc(C(=O)N2CCCC(Nc3ncc(Cl)c(-c4c[nH]c5ccccc45)n3)C2)cc1 (stereo not given)
% of control [5]: 57%

SMILES: Nc1cnc(N2CCc3cc(S(=O)(=O)Nc4c(F)cc(Cl)cc4F)cc(N4CCCC4=O)c32)nc1 [TP-020n]
% of control [6]: 99%
% of control [7]: 100%

SMILES: C=CC(=O)Nc1ccc(C(=O)Nc2[nH]nc3c2CN(C(=O)N[C@H](CN(C)C)c2ccccc2)C3(C)C)cc1
% of engagement ([8]; Selectivity number of off-targets 0.0, Selectivity number of targets 233.0, Source Knowledge https://www.sciencedirect.com/science/article/pii/S2451945619300674?via%3Dihub): 18.9%
% of engagement [8]: 8.9%

SMILES: CCC(=O)N1CCN(c2ccc(-n3c(=O)ccc4cnc5ccc(-c6cnc7ccccc7c6)cc5c43)cc2C(F)(F)F)CC1
% of control [9]: 100%
% of control [10]: 90%
